From patent publication US20080081053A1, “Treatment Method” (priority 2004, published 2008)

Test system: advanced AML
Test: Phase 2 clinical study in patients with advanced AML
Assay type: in vivo, human
Settings: for %myeloblasts in bone marrow: patient with HI for neutrophils, 36% at baseline
Experimental: In a Phase 2 clinical study, 24 patients, 18 years or older, with advanced AML were treated with 12.5 mg AP23573 as a 30-minute intravenous infusion daily for 5 days every-2-weeks (QDX5, daily). The majority of patients enrolled in this trial had aggressive disease and received AP23573 study treatment as at least a 3rd line treatment regimen. Responses were assessed at the end of each cycle (4 weeks of study treatment). At the end of one cycle, two patients had Hematologic Improvement (HI), including erythroid and neutrophil minor responses. […] Six patients were stable at the end of Cycle 1 (neither response nor disease progression).
The criteria for observed responses were as follows: • a Minor Response for erythroid HI: for patients with pre-dosing hemoglobin less than 11 g/dL, […] increase in hemoglobin; for RBC transfusion-dependnt patients, 50% decrease in transfusion requirements • a Minor Response for neutrophil HI: for ANC less than 1.5×10^9 before dosing, ANC increase of at least 100%, but absolute increase less than 1.5×10^9 • Stable Disease/no response: no significant change since baseline (neither response nor progression criteria were met) • Progressive Disease: One of the following: a 50% or greater decrement from maximum response levels in graunulocytes or platelets, a reduction in hemoglobin concentration by at least 2 g/dL, or transfusion dependence

SMILES: CO[C@H]1C[C@@H]2CC[C@@H](C)[C@@](O)(O2)C(=O)C(=O)N2CCCC[C@H]2C(=O)O[C@H]([C@H](C)C[C@@H]2CC[C@@H](OP(C)(C)=O)[C@H](OC)C2)CC(=O)[C@H](C)/C=C(\C)[C@@H](O)[C@@H](OC)C(=O)[C@H](C)C[C@H](C)/C=C/C=C/C=C/1C [AP23573]
- patients with Hematologic Improvement (HI), including erythroid and neutrophil minor responses (24 patients with advanced AML, 12.5 mg, 30-minute i.v. infusion daily for 5 days every 2 weeks (QDX5), at the end of one cycle (4 weeks)): two
- patients stable (neither response nor disease progression) (24 patients with advanced AML, end of Cycle 1, 12.5 mg i.v. QDX5): Six
- %myeloblasts in bone marrow (at Cycle 2, 12.5 mg i.v. QDX5): 15%
- %myeloblasts in bone marrow (end of Cycle 1, 12.5 mg i.v. QDX5): 9%
